Reference: ChEMBL document CHEMBL4406923, “New Potent DOT1L Inhibitors for in Vivo Evaluation in Mouse” (ACS Med Chem Lett, 2019)
Calls of active or inactive are those of the source. No cut-off for these calls is given here.

What was measured:
[1] = target: Histone-lysine N-methyltransferase, H3 lysine-79 specific (Homo sapiens, UniProt Q8TEK3); experiment: Inhibition of 0.05 nM DOT1L (2 to 416 residues) (unknown origin) using biotinylated nucleosome as substrate and [3H]SAM as co-factor preincubated for 30 mins followed by substrate and cofactor addition and measured after 180 mins by scintillation proximity assay
MV4-11 = experiment: Antitumor activity against human MV4-11 cells xenografted in C57BL/6 mouse assessed as reduction in tumor growth at <6 fold 300 mg/kg, po relative to control; type: functional
Homo sapiens = species: Homo sapiens; experiment: Inhibition of Ezh1 (Ezh1/EED/SUZ12/AEBP2/RbAP48) (unknown origin) at <5 uM using histone H3 peptide (21 to 44) as substrate in presence of co-factor SAM by LC-MS analysis
[2] = target: T1, Histone-lysine N-methyltransferase EHMT2 (Homo sapiens) (UniProt Q96KQ7); experiment: Inhibition of G9a (unknown origin) at <5 uM using histone H3 peptide (1 to 21) as substrate in presence of co-factor SAM by LC-MS analysis
T1 sequence (whole entry): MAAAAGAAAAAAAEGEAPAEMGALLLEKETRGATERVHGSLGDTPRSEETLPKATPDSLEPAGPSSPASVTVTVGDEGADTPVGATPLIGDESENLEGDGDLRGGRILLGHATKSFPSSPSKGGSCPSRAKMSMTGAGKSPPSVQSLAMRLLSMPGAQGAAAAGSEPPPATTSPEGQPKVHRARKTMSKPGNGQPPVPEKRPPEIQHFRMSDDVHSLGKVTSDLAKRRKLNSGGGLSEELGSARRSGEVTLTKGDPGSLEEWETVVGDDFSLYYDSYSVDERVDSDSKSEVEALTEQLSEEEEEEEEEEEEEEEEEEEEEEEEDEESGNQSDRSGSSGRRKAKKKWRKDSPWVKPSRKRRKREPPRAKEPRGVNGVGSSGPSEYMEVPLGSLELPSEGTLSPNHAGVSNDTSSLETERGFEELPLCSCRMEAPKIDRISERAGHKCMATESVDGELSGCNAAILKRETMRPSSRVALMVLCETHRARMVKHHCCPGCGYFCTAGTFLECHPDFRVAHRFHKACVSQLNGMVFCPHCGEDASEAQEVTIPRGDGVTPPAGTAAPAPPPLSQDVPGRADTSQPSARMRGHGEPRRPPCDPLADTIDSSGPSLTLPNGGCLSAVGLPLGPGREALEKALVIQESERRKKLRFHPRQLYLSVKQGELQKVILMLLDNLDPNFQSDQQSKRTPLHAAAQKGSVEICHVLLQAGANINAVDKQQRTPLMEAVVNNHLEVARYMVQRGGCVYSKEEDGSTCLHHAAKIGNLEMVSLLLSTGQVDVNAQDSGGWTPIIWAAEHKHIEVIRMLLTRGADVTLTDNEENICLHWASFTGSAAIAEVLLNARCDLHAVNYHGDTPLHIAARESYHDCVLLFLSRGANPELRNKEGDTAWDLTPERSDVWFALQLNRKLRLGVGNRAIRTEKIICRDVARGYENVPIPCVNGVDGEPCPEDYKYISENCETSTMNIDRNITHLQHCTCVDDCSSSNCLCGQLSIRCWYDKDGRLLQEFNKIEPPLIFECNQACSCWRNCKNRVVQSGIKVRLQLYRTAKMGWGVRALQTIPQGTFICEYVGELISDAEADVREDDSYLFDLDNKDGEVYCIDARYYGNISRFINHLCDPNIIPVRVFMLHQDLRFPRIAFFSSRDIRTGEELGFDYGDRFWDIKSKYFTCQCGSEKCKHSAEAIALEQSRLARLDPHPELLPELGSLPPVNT

[3] = target: T2, Histone-lysine N-methyltransferase NSD3 (Homo sapiens) (UniProt Q9BZ95); experiment: Inhibition of NSD3 (unknown origin) at <5 uM using histone H3 peptide (1 to 45) as substrate in presence of co-factor SAM by LC-MS analysis
T2 sequence (whole entry): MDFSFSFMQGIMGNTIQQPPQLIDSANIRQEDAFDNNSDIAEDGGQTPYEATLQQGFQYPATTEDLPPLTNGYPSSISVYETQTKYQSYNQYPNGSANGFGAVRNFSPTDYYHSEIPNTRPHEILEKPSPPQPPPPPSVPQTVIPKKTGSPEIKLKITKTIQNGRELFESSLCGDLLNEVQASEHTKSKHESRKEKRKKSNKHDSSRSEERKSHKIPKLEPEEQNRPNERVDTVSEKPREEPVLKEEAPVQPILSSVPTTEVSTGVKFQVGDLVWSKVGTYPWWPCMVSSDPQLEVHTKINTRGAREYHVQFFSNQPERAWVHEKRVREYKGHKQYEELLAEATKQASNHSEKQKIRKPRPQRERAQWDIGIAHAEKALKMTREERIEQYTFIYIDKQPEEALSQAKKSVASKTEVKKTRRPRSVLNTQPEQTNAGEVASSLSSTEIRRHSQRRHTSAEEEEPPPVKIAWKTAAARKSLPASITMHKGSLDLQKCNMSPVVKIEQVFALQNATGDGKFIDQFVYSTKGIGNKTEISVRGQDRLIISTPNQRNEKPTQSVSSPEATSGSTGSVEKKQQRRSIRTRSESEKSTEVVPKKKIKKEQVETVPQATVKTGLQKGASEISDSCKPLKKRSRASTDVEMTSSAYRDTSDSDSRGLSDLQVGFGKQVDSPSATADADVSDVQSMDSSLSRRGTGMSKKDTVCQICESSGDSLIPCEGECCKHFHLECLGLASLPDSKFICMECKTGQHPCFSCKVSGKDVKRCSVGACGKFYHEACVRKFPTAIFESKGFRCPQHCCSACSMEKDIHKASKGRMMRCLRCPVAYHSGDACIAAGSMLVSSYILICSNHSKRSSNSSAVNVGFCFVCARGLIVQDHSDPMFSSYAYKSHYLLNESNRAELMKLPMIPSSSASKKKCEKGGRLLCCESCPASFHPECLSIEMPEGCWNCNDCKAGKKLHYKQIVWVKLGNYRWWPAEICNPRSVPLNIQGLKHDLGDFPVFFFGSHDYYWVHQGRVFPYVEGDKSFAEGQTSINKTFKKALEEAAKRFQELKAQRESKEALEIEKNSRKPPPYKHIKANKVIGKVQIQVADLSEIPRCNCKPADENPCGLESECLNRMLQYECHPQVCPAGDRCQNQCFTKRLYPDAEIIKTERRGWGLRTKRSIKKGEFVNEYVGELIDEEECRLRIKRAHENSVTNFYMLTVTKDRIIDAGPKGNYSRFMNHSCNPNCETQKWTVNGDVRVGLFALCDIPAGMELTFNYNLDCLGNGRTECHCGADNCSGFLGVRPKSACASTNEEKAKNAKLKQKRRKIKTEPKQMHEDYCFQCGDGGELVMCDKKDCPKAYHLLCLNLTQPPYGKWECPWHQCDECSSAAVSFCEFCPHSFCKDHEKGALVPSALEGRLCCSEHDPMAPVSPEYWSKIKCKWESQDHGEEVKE

Chain of Histone-lysine N-methyltransferase, H3 lysine-79 specific (Q8TEK3 whole entry, the tested form may be a part): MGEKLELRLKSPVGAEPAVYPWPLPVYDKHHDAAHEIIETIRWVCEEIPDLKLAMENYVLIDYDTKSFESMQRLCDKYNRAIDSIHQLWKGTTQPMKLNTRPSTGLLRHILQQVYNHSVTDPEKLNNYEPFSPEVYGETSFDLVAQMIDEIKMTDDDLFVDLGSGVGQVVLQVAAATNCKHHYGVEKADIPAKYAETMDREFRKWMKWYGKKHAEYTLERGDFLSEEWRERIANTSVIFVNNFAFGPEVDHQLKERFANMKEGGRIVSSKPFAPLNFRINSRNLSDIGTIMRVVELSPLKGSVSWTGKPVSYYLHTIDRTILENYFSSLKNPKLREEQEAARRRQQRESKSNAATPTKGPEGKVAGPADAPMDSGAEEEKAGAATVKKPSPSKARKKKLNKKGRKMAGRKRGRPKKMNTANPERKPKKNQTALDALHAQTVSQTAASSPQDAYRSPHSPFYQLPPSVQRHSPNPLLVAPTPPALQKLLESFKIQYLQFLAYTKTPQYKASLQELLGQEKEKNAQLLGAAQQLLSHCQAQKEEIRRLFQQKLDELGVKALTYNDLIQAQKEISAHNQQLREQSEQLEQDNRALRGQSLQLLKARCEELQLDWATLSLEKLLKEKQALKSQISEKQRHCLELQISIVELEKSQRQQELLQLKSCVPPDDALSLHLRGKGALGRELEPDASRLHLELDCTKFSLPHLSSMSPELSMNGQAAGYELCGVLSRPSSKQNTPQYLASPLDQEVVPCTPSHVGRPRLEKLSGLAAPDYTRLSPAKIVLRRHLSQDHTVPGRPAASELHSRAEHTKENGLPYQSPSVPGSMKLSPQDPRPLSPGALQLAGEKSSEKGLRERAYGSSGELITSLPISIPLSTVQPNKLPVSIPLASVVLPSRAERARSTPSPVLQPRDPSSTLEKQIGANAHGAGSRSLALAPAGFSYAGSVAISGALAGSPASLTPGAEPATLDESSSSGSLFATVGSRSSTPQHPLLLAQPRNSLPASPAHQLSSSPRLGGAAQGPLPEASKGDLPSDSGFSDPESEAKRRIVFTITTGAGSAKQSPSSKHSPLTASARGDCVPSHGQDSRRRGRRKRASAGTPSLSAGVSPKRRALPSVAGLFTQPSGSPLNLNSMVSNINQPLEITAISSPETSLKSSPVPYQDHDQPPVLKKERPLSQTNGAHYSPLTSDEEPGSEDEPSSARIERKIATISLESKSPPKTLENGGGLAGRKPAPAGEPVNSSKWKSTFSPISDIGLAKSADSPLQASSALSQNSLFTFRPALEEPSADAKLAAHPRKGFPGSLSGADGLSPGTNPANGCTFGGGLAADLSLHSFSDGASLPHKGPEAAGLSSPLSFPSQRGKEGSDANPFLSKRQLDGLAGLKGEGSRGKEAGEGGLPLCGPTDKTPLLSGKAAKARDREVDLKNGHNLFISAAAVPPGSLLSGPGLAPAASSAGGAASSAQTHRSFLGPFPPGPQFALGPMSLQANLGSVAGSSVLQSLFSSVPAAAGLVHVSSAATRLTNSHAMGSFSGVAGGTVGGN

Question: Which IC50 [1] does the source give for COc1nc(Nc2cc(S(C)(=O)=O)ccc2N[C@@H](c2cccc3c2OC(F)(F)O3)c2ncccc2Cl)nc(N2CCNCC2)n1 here?
Answer: Its IC50 is 0.11 nM.

Question: What about the “fold change (FC)” value (MV4-11) of the same compound?
Answer: Its value is less than 0.5.

Question: What about the inhibition (Homo sapiens) of the same compound?
Answer: Its inhibition is “inactive”.

Question: What about the inhibition [2] of the same compound?
Answer: Its inhibition is “inactive”.

Question: What about the inhibition [3] of the same compound?
Answer: The inhibition was “inactive”.
